Results as given in PubChem BioAssay (NCI).
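Method: 48-hour compound exposure of cells in 96-well plates, five concentrations, linear interpolation of endpoints. GI50: concentration for 50% inhibition of growth. Definition used: TGI = concentration required for complete inhibition of growth.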

Legend:
Experiment in all cases: NCI-60 cell line screen, 48 h
K-562 leukemia = system: K-562 leukemia
HCT-15 colon = system: HCT-15 colon
NCI-H23 lung = system: NCI-H23 lung
HCC-2998 colon = system: HCC-2998 colon
UACC-62 melanoma = system: UACC-62 melanoma
IGROV1 ovarian = system: IGROV1 ovarian
NCI-H460 lung = system: NCI-H460 lung
UACC-257 melanoma = system: UACC-257 melanoma
RPMI-8226 leukemia = system: RPMI-8226 leukemia
DU-145 prostate = system: DU-145 prostate
CCRF-CEM leukemia = system: CCRF-CEM leukemia
EKVX NSCLC = system: EKVX NSCLC
COLO 205 colon = system: COLO 205 colon
HS 578T breast = system: HS 578T breast
SF-268 CNS = system: SF-268 CNS
ACHN renal = system: ACHN renal
PC-3 prostate = system: PC-3 prostate
A498 renal = system: A498 renal
KM12 colon = system: KM12 colon
M14 melanoma = system: M14 melanoma
MOLT-4 leukemia = system: MOLT-4 leukemia
OVCAR-4 ovarian = system: OVCAR-4 ovarian
UO-31 renal = system: UO-31 renal
786-0 renal = system: 786-0 renal
TK-10 renal = system: TK-10 renal
HOP-92 NSCLC = system: HOP-92 NSCLC
LOX IMVI melanoma = system: LOX IMVI melanoma
SW-620 colon = system: SW-620 colon
OVCAR-3 ovarian = system: OVCAR-3 ovarian
SNB-75 CNS = system: SNB-75 CNS
T-47D breast = system: T-47D breast
SK-MEL-5 melanoma = system: SK-MEL-5 melanoma
OVCAR-5 ovarian = system: OVCAR-5 ovarian
NCI-H522 lung = system: NCI-H522 lung
MCF7 breast = system: MCF7 breast
U251 CNS = system: U251 CNS
SN12C renal = system: SN12C renal
MDA-MB-231 breast = system: MDA-MB-231 breast
SK-MEL-28 melanoma = system: SK-MEL-28 melanoma
NCI-H226 lung = system: NCI-H226 lung
HOP-62 NSCLC = system: HOP-62 NSCLC
SF-295 CNS = system: SF-295 CNS
SF-539 CNS = system: SF-539 CNS
RXF 393 renal = system: RXF 393 renal
MDA-MB-435 = system: MDA-MB-435
MALME-3M melanoma = system: MALME-3M melanoma
OVCAR-8 ovarian = system: OVCAR-8 ovarian
SNB-19 CNS = system: SNB-19 CNS
A549 NSCLC = system: A549 NSCLC
HCT-116 colon = system: HCT-116 colon
HT29 colon = system: HT29 colon
CAKI-1 renal = system: CAKI-1 renal
SK-MEL-2 melanoma = system: SK-MEL-2 melanoma
BT-549 breast = system: BT-549 breast
SK-OV-3 ovarian = system: SK-OV-3 ovarian
SR leukemia = system: SR leukemia

Structure (SMILES): COc1ccc2c(ccc3c(C(=O)NCCCN(C)CCCNC(=O)c4cn(C)c5c4ccc4cc(OC)ccc45)cn(C)c32)c1
- TGI (K-562 leukemia): > 100 µM
- TGI (HCT-15 colon): 2.6 µM
- TGI (NCI-H23 lung): 2.97 µM
- TGI (HCC-2998 colon): 2.97 µM
- TGI (UACC-62 melanoma): 3.15 µM
- TGI (IGROV1 ovarian): 2.86 µM
- TGI (NCI-H460 lung): 2.79 µM
- TGI (UACC-257 melanoma): 2.97 µM
- TGI (RPMI-8226 leukemia): 5.89 µM
- TGI (DU-145 prostate): 3.17 µM
- TGI (CCRF-CEM leukemia): > 100 µM
- TGI (EKVX NSCLC): 2.92 µM
- TGI (COLO 205 colon): 4.87 µM
- TGI (HS 578T breast): 4.78 µM
- TGI (SF-268 CNS): 3.38 µM
- TGI (ACHN renal): 3.02 µM
- TGI (PC-3 prostate): 2.88 µM
- TGI (A498 renal): > 100 µM
- TGI (KM12 colon): 2.9 µM
- TGI (M14 melanoma): 2.94 µM
- TGI (MOLT-4 leukemia): > 100 µM
- TGI (OVCAR-4 ovarian): 3.27 µM
- TGI (UO-31 renal): 3.01 µM

Structure (SMILES): O=C(NN1C(=O)CSC1c1c(Cl)cccc1Cl)C(O)c1ccccc1 (stereo not given)
- GI50 (K-562 leukemia): 29.7 µM
- TGI (K-562 leukemia): 76 µM
- GI50 (786-0 renal): 69.3 µM
- TGI (786-0 renal): > 100 µM
- GI50 (TK-10 renal): 78.9 µM
- TGI (TK-10 renal): > 100 µM
- GI50 (HOP-92 NSCLC): 20.9 µM
- TGI (HOP-92 NSCLC): 98.9 µM
- GI50 (HCT-15 colon): 30.5 µM
- TGI (HCT-15 colon): > 100 µM
- GI50 (NCI-H23 lung): 19.9 µM
- TGI (NCI-H23 lung): > 100 µM
- GI50 (HCC-2998 colon): 64.3 µM
- TGI (HCC-2998 colon): > 100 µM
- GI50 (UACC-62 melanoma): 7.15 µM
- TGI (UACC-62 melanoma): 43.5 µM
- GI50 (LOX IMVI melanoma): 64.7 µM
- TGI (LOX IMVI melanoma): > 100 µM
- GI50 (SW-620 colon): 71.8 µM
- TGI (SW-620 colon): > 100 µM
- GI50 (OVCAR-3 ovarian): 21.3 µM
- TGI (OVCAR-3 ovarian): 76.6 µM
- GI50 (IGROV1 ovarian): 40.8 µM
- TGI (IGROV1 ovarian): > 100 µM
- GI50 (SNB-75 CNS): 32.4 µM
- TGI (SNB-75 CNS): > 100 µM
- GI50 (NCI-H460 lung): 40.4 µM
- TGI (NCI-H460 lung): > 100 µM
- GI50 (T-47D breast): 40.4 µM
- TGI (T-47D breast): > 100 µM
- GI50 (UACC-257 melanoma): 31 µM
- TGI (UACC-257 melanoma): 94.5 µM
- GI50 (RPMI-8226 leukemia): 43.8 µM
- TGI (RPMI-8226 leukemia): > 100 µM
- GI50 (SK-MEL-5 melanoma): 32.8 µM
- TGI (SK-MEL-5 melanoma): > 100 µM
- GI50 (DU-145 prostate): > 100 µM
- TGI (DU-145 prostate): > 100 µM
- GI50 (CCRF-CEM leukemia): 43.7 µM
- TGI (CCRF-CEM leukemia): > 100 µM
- GI50 (OVCAR-5 ovarian): > 100 µM
- TGI (OVCAR-5 ovarian): > 100 µM
- GI50 (NCI-H522 lung): 25.7 µM
- TGI (NCI-H522 lung): > 100 µM
- GI50 (EKVX NSCLC): 59.6 µM
- TGI (EKVX NSCLC): > 100 µM
- GI50 (MCF7 breast): 44.2 µM
- TGI (MCF7 breast): > 100 µM
- GI50 (COLO 205 colon): 34.1 µM
- TGI (COLO 205 colon): > 100 µM
- GI50 (U251 CNS): 37.3 µM
- TGI (U251 CNS): > 100 µM
- GI50 (HS 578T breast): > 100 µM
- TGI (HS 578T breast): > 100 µM
- GI50 (SN12C renal): 34.9 µM
- TGI (SN12C renal): > 100 µM
- GI50 (MDA-MB-231 breast): 19.2 µM
- TGI (MDA-MB-231 breast): > 100 µM
- GI50 (SK-MEL-28 melanoma): 63.7 µM
- TGI (SK-MEL-28 melanoma): > 100 µM
- GI50 (NCI-H226 lung): 38.1 µM
- TGI (NCI-H226 lung): > 100 µM
- GI50 (HOP-62 NSCLC): > 100 µM
- TGI (HOP-62 NSCLC): > 100 µM
- GI50 (SF-295 CNS): 37.3 µM
- TGI (SF-295 CNS): > 100 µM
- GI50 (SF-268 CNS): 60 µM
- TGI (SF-268 CNS): > 100 µM
- GI50 (ACHN renal): 28.4 µM
- TGI (ACHN renal): > 100 µM
- GI50 (SF-539 CNS): > 100 µM
- TGI (SF-539 CNS): > 100 µM
- GI50 (PC-3 prostate): 29.6 µM
- TGI (PC-3 prostate): > 100 µM
- GI50 (RXF 393 renal): 29.3 µM
- TGI (RXF 393 renal): > 100 µM
- GI50 (MDA-MB-435): 25 µM
- TGI (MDA-MB-435): > 100 µM
- GI50 (MALME-3M melanoma): 31.7 µM
- TGI (MALME-3M melanoma): > 100 µM
- GI50 (A498 renal): > 100 µM
- TGI (A498 renal): > 100 µM
- GI50 (OVCAR-8 ovarian): 52 µM
- TGI (OVCAR-8 ovarian): > 100 µM
- GI50 (SNB-19 CNS): 71.6 µM
- TGI (SNB-19 CNS): > 100 µM
- GI50 (A549 NSCLC): 21.2 µM
- TGI (A549 NSCLC): 81.6 µM
- GI50 (HCT-116 colon): 36.7 µM
- TGI (HCT-116 colon): > 100 µM
- GI50 (HT29 colon): 33.1 µM
- TGI (HT29 colon): > 100 µM
- GI50 (KM12 colon): 34.2 µM
- TGI (KM12 colon): > 100 µM
- GI50 (M14 melanoma): 35.7 µM
- TGI (M14 melanoma): > 100 µM
- GI50 (CAKI-1 renal): 23.9 µM
- TGI (CAKI-1 renal): > 100 µM
- GI50 (MOLT-4 leukemia): 25 µM
- TGI (MOLT-4 leukemia): 80.7 µM
- GI50 (SK-MEL-2 melanoma): 50.5 µM
- TGI (SK-MEL-2 melanoma): > 100 µM
- GI50 (OVCAR-4 ovarian): 29.1 µM
- TGI (OVCAR-4 ovarian): > 100 µM
- GI50 (BT-549 breast): 80 µM
- TGI (BT-549 breast): > 100 µM
- GI50 (SK-OV-3 ovarian): > 100 µM
- TGI (SK-OV-3 ovarian): > 100 µM
- GI50 (UO-31 renal): 29.3 µM
- TGI (UO-31 renal): > 100 µM

Structure (SMILES): CC(C)[Si](Oc1ccc(CC2N(C(=O)c3ccc([N+](=O)[O-])cc3)C(CCc3ccccc3)CC2(C)C=O)cc1)(C(C)C)C(C)C (stereo not given)
- TGI (786-0 renal): > 100 µM
- TGI (TK-10 renal): > 100 µM
- TGI (HOP-92 NSCLC): 82.8 µM
- TGI (HCT-15 colon): > 100 µM
- TGI (NCI-H23 lung): > 100 µM
- TGI (HCC-2998 colon): > 100 µM
- TGI (UACC-62 melanoma): > 100 µM
- TGI (LOX IMVI melanoma): > 100 µM
- TGI (OVCAR-3 ovarian): > 100 µM
- TGI (IGROV1 ovarian): > 100 µM
- TGI (T-47D breast): > 100 µM
- TGI (UACC-257 melanoma): > 100 µM
- TGI (RPMI-8226 leukemia): > 100 µM
- TGI (DU-145 prostate): > 100 µM
- TGI (CCRF-CEM leukemia): > 100 µM
- TGI (OVCAR-5 ovarian): > 100 µM
- TGI (NCI-H522 lung): > 100 µM
- TGI (EKVX NSCLC): > 100 µM
- TGI (COLO 205 colon): > 100 µM
- TGI (U251 CNS): > 100 µM
- TGI (HS 578T breast): > 100 µM
- TGI (MDA-MB-231 breast): 95.5 µM
- TGI (SK-MEL-28 melanoma): > 100 µM
- TGI (NCI-H226 lung): 98.2 µM
- TGI (HOP-62 NSCLC): 31.5 µM
- TGI (SF-295 CNS): > 100 µM
- TGI (SF-268 CNS): 54.8 µM
- TGI (ACHN renal): > 100 µM
- TGI (SR leukemia): > 100 µM
- TGI (SF-539 CNS): 23.2 µM
- TGI (PC-3 prostate): > 100 µM
- TGI (RXF 393 renal): 28.2 µM
- TGI (MALME-3M melanoma): > 100 µM
- TGI (A498 renal): > 100 µM
- TGI (OVCAR-8 ovarian): 42.5 µM
- TGI (SNB-19 CNS): 59.4 µM
- TGI (CAKI-1 renal): > 100 µM
- TGI (SK-MEL-2 melanoma): > 100 µM
- TGI (OVCAR-4 ovarian): > 100 µM
- TGI (BT-549 breast): > 100 µM
- TGI (SK-OV-3 ovarian): > 100 µM
- TGI (UO-31 renal): > 100 µM
